Entries after “also recorded” stand apart in the source; their conditions may differ. Read-outs that look alike come from different tables or passages of the source. No end group written: not given here.
Key:
[1] = system: HCT116 cells; assay: EdU incorporation assay (DNA synthesis); type: cell-based, human
Procedure: (§1) 96-well plates were seeded at 3000 cells per well and exposed to different treatments. 50 μM EdU labeling medium (RiboBio) was added and incubated for 2 h at 37 °C. The cells were then fixed with 4% […] for 10 min. After being washed with PBS, cells were stained with anti-EdU working solution for 30 min and stained with Hoechst33342 for 10 min. Cells were observed using fluorescent microscopy. The percentage of EdU-positive cells was calculated from five random fields in three wells.

[2] = system: LoVo cells; assay: EdU incorporation assay (DNA synthesis); type: cell-based, human
Procedure: as §1

[3] = system: NCM460 cells; assay: EdU incorporation assay (DNA synthesis); type: cell-based, human
Procedure: as §1

[4] = system: intestine and liver; assay: Organ histology (Supplementary Fig. 6); type: in vivo, mouse
[5] = system: CRC cells
[6] = system: patient-derived CRC xenograft; assay: CRC patient-derived xenograft (PDX) therapeutic evaluation; type: in vivo, human xenograft in mice; details: HE staining
[7] = system: Cleaved caspase 3 in colon tissues; assay: Cleaved caspase 3 immunofluorescence in colon tissues (GI toxicity); type: in vivo, mouse; details: PDX mice, CPT eq. 3 mg/kg iv twice a week, colon tissue
[8] = system: HCT116 tumors; assay: HCT116 xenograft therapeutic evaluation; details: CPT 5 mg/kg iv twice a week
Procedure: Female BALB/c nude mice (4–6 weeks with weights of 18–22 g) were obtained from Shanghai Super-B&K Laboratory Animal Corp. Ltd. (Shanghai, China) and kept in specific pathogen free, temperature-controlled isolation. All animal studies were conducted in accordance with the principles and procedures outlined in the Guide for the Care and Use of Laboratory Animals and were approved by Ethics committee. To generate the HCT116 and U87 tumor model, about 1 × 10^6 tumor cells were subcutaneously injected into the right front flank of 4 weeks old athymic nude mice.
The HCT116 tumor-bearing mice were randomly divided into 4 groups (n = 7 for each group). […] The tumors were measured by a vernier caliper twice a week. The weights of the mice were recorded. Then, the mice were sacrificed at the 28th day. The tumors were dissected and weighted. The tumor volumes were calculated to evaluate the therapeutic efficacy.

[9] = system: HCT116 cells; assay: Endocytosis inhibition assay (FITC-P-LPK internalization); type: cell-based, human; details: 10 µM, 30 min pre-treatment, then FITC-P-LPK 2 h; NC vs CPZ p = 0.0001
Procedure: Fig. 6 P-LPK bound to SLC1A5 and entered CRC cells through endocytosis. a, b Western blotting analysis of SLC1A5 in NCM460, HCT116, LoVo, SW480, HT29 and Colo320HSR cells. After knocking down SLC1A5 in HCT116 and HT29, the binding intensity of FITC-P-LPK to cells was observed by confocal microscopy. Bar, 10 μm. c, d Effects of different endocytosis inhibitors on the internalization of FITC-P-LPK. HCT116 cells were pre-treated with 10 µM chlorpromazine, 50 μM methyl-β-cyclodextrin, 20 µM Amiloride hydrochloride for 30 min at 37 °C. Subsequently, the cells were incubated with FITC-P-LPK for 2 h. Then the fluorescence intensity was observed by confocal microscopy and detected using a multi-well plate reader (n = 5, means ± SD, NC vs CPZ, p = 0.0001; NC vs MβCD, p = 0.9069; NC vs EIPA, p = 0.9812) (****p < 0.0001). Bar, 10 μm. e The competition experiment with SLC1A5 substrates glutamine. FITC-P-LPK was incubated with increasing concentrations (0–32 mM) of glutamine in HCT116 cells at 37 °C for 2 h. The fluorescence intensity was measured in a multi-well plate reader (n = 5, means ± SD).
Chlorpromazine (CPZ), amiloride (AMI), and methyl-β-cyclodextrin (MCD) were purchased from MedChem Express. […] Then the fluorescence intensity was detected using a multi-well plate reader (BioTek synergy4) and observed by confocal laser scanning microscopy.

[10] = system: HCT116 cells; assay: FITC-peptide binding, confocal fluorescence intensity; type: cell-based, human; details: FITC labeled, immunofluorescence
Procedure: NCM460, Colo320HSR, HCT116, LoVo, HT29 and SW480 cells were respectively incubated with FITC-labeled P-LPK (Random peptide P-CON) peptides for 2 h at 37 °C and washed with PBS for three times. The cells were fixed with 4% paraformaldehyde for 30 min at room temperature, and then 4,6-diamidino-2-phenylindole (DAPI) was used for nucleic acid stain. A laser scanning confocal microscope was used to visualize the cells. The fluorescence intensity was analyzed using the Image-Pro Plus 6.0 software. For cell localization experiment, 20 μg/ml rhodamine-labeled peptides were incubated with NCM460 and HCT116 for 2 h, and then washed with PBS for three times. After that, the cell membrane was stained with a blue cell membrane probe (Thermo Fisher Scientific, Cat. No. W11263). The binding of Rhodamine-P-LPK to cells and their localization in cells was observed under a confocal microscope.

[11] = target: T1, recombinant SLC1A5 (Homo sapiens, UniProt Q15758); assay: Surface plasmon resonance, Biacore T200; type: binding; details: Biacore T200, CM5 chip, peptide 25–400 μM, 1×PBS with 5% DMSO, 0.05% Tween 20, pH 7.4; read-out: KD (SPR)
T1 sequence (Q15758 1-541): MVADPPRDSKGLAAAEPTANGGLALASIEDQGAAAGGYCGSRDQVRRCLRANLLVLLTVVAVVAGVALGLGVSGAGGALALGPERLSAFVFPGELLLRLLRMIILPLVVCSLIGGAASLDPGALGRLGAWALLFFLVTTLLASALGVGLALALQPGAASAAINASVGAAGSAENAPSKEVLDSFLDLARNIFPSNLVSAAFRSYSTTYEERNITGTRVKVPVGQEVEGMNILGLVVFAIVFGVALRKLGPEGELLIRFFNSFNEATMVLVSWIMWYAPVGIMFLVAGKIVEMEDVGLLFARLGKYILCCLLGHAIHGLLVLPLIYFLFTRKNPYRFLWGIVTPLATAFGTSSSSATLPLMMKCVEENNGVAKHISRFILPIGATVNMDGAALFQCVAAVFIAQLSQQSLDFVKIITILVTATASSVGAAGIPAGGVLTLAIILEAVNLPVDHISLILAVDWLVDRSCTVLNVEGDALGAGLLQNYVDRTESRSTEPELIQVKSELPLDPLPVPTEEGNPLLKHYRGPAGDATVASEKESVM
Procedure: A surface plasmon resonance-based method using the Biacore T200 platform was developed to detect the binding of peptide (25–400 μM) to recombinant SLC1A5. The sensor chip CM5, 1 × PBS (2 mM KH2PO4, 10 mM Na2HPO4, 137 mM NaCl, 2.7 mM KCl) with 5% DMSO, 0.05% Tween 20 buffer (pH 7.4), and the amine coupling kit (which includes EDC, NHS, and ethanolamine reagents) were all obtained from GE Healthcare. The sensor chip CM5 was activated using EDC and NHS reagents, according to the standard procedure for amine coupling. 20 μg/ml SLC1A5 (about 10 μg proteins in 0.5 ml 10 mM Sodium Acetate buffer) was then covalently immobilized to the chip surface CM5 under 10 mM Sodium Acetate (pH 4.5) buffer. The resulting differences in resonance units (RU) were about 4000 RU. After de-activation by ethanolamine and washing with 1×PBS with 5% DMSO, 0.05% Tween 20 buffer (pH 7.4), the prepared sensor chip was applied to Biacore T200 for the binding assay. 1×PBS with 5% DMSO, 0.05% Tween 20 buffer (pH 7.4) was used as running buffer. A one-minute injection of a solution of 10 mM Glycine-HCl, pH 3.0 was used to regenerate the chip surface.

[12] = system: HCT116 tumors; assay: in vivo; set-up: species or system human xenograft in BALB/c nude mice; details: for T/NT ratio, unblock: female, BALB/c nude, mouse, iv, 3.7 MBq
Procedure: (§2) To obtain ^68Ga, 0.1 M HCl was used to elute a ^68Ge-^68Ga generator. The radioactivity of eluate was monitored. The radioactive elution peak was collected for ^68Ga radiolabeling experiment. An aliquot of 150 μg of compound P-LPK or P-CON was put in a glass vial and dissolved with 0.2 M sodium acetate/acetic acid buffer, pH 3.8. Then ^68GaCl3 tracer was added, and the pH was adjusted to fall in a range of 3.5~4 with 0.1 M NaOH. The solution was stored at room temperature for 0.5 h. The radiochemical purities of ^68Ga-P-LPK and ^68Ga-P-CON were measured with thin-layer chromatography (TLC), using silica gel-impregnated glass fiber stripe (iTLC SG) and 0.25 M sodium citrate/citric acid buffer as mobile phase. ^68GaCl3 was used as a control.
(§3) Each U87 and HCT116 tumor-bearing mouse was injected in a tail vein with 3.7 MBq (100 μCi, 0.1 nmol in 100 μl) of ^68Ga-P-LPK or ^68Ga-P-CON under isoflurane anesthesia (n = 4 per group). For static PET, 5-min scans were acquired at 30 min, 60 min, and 120 min after injection. The maximum radioactivity concentrations within a tumor or an organ were obtained from mean pixel values within the multiple regions of interest (ROI) volume.
(§4) For the blocking experiment, unlabeled P-LPK was first injected into mice (n = 3 per group), and 3.7 MBq ^68Ga-P-LPK was then injected. Static PET images were acquired at 30 min, 60 min and 120 min post-injection.

[13] = in vivo; set-up: species or system human xenograft in BALB/c nude mice; details: female, BALB/c nude, mouse, iv, 3.7 MBq, total radioactivity, T/NT ratio
Procedure: as §2, §3, §4

[14] = in vivo; set-up: species or system human xenograft in BALB/c nude mice; details: female, BALB/c nude, mouse, iv, 3.7 MBq, total radioactivity, T/NT ratio; remark: listed apart in the source
Procedure: as §2, §3

[15] = target: T2, recombinant SLC1A5 (UniProt Q15758 1-541); assay: SPR; Biacore T200; SLC1A5 covalently immobilised by amine coupling on a CM5 chip (about 4000 RU); peptide 25-400 uM as analyte; running buffer 1x PBS with 5% DMSO, 0.05% Tween 20, pH 7.4; details: both partners purified
T2 construct: glutamine transporter solute carrier 1 family member 5 (SLC1A5, ASCT2), recombinant protein; additional methods are in the Supplementary Material; also called solute carrier 1 family member 5; ASCT2
T2 sequence: T1 sequence (Q15758 1-541)

[16] = relative to DMSO = 1, replicate 1
[17] = relative to DMSO = 1, replicate 2
[18] = relative to DMSO = 1, replicate 3

## CC[C@@]1(O)C(=O)OCc2c1cc1n(c2=O)Cc2cc3ccccc3nc2-1 [CPT, camptothecin]
[1]; [16]
  Proportion of cells in the DNA synthesis state: 1.278
[1]; [17]
  Proportion of cells in the DNA synthesis state: 0.9932
[1]; [18]
  Proportion of cells in the DNA synthesis state: 0.9243
[2]; [16]
  Proportion of cells in the DNA synthesis state: 0.9805
[2]; [17]
  Proportion of cells in the DNA synthesis state: 0.8341
[2]; [18]
  Proportion of cells in the DNA synthesis state: 1.054
[3]; [16]
  Proportion of cells in the DNA synthesis state: 1.185
[3]; [17]
  Proportion of cells in the DNA synthesis state: 1.136
[3]; [18]
  Proportion of cells in the DNA synthesis state: 0.9381
[4]
  Damage to intestine and liver: significantly increased
[5]; 10 nM (CPT equivalent)
  Antitumor activity / cytotoxicity: no obvious toxicity to CRC cells
[5]; 100 nM
  Antitumor activity / cytotoxicity: obvious cytotoxicity effects
[6]
  Tumor histology (cancer cells in tumor tissue): almost maintained its original morphological features
[7]; CPT vs P-LPK-CPT p = 0.0051, replicate 1
  Quantification of Cleaved caspase 3: 24
[7]; replicate 2
  Quantification of Cleaved caspase 3: 11
[7]; replicate 3
  Quantification of Cleaved caspase 3: 14
[7]; replicate 4
  Quantification of Cleaved caspase 3: 10
[7]; replicate 5
  Quantification of Cleaved caspase 3: 13
[8]
  Mortality during treatment: More than half of the mice; also recorded: more than half of mice treated with CPT died of side effects

## CN(C)CCCN1c2ccccc2Sc2ccc(Cl)cc21 [CPZ, chlorpromazine]
[9]
  Effect on cellular internalization of FITC-P-LPK: exhibited the highest inhibitory effect; also recorded: remarkably decreased the cellular internalization of FITC-P-LPK

## APATVSSDMSLA [FITC-P-MUT]
[10]
  Fluorescence intensity of mutant peptide bound to cells: significantly reduced

## DLPSRTSALASG [P-CON]
[11]
  Kd: 126 µM

## LPKTVSSDMSLN [68Ga-P-LPK, metal not drawn]
[12]
  T/NT ratios after blocking: significantly reduced
  T/NT ratios vs 68Ga-P-CON: significantly increased
  Tumor binding after pre-injection with unlabeled P-LPK: dramatically attenuated
[12]; 0.5 h
  T/NT ratio, unblock: 0.51
[12]; 1 h
  T/NT ratio, unblock: 2.47
[13]
  tissue to tissue ratio at 0.5 h: 2.85
  tissue to tissue ratio at 1 h: 2.38
  tissue to tissue ratio at 2 h: 1.87
[13]; block
  tissue to tissue ratio at 0.5 h: 0.41
  tissue to tissue ratio at 1 h: 1.17
  tissue to tissue ratio at 2 h: 0.79
[13]; unblock
  tissue to tissue ratio at 0.5 h: 0.82
  tissue to tissue ratio at 1 h: 2.91
  tissue to tissue ratio at 2 h: 2.31
[14]
  tissue to tissue ratio at 0.5 h: 1.68
  tissue to tissue ratio at 1 h: 1.47
  tissue to tissue ratio at 2 h: 1.28

B1: P-LPK peptide (peptide)
peptide: LPKTVSSDMSLN
notes: twelve-residue peptide selected from an M13 phage-display peptide library on CRC cells; Unlabelled peptide, analyte in the SPR experiment; source: synthetic peptide
[15]
  Kd: ~1.19 µM
